This note sets out measurements from patent publication US20110306606A1, “NOVEL 2,6-SUBSTITUTED-3-NITROPYRIDINE DERIVATIVE, METHOD FOR PREPARING SAME, AND PHARMACEUTICAL COMPOSITION INCLUDING SAME” (priority 2008, published 2011).

Series [1] relates to Osteoblasts (Calvarial cells). The conditions noted are these: ICR, mouse, 72 h, 1 μM.
The subject of series [2] is Osteoblasts (Calvarial cells). In words: Alkaline phosphatase (ALP) activity in osteoblasts (Calvarial cells). It is filed as cell-based, mice. The following applies: 1 μM compound, 3 days; for activity at 1 µM: Mus musculus, 72 h, Calvarial cell, read-out: ALP activity (1 μM, % of Control) Calvarial cell. The procedure:
Differentiation and activity of osteoblasts were indirectly evaluated by measuring an ALP activity having a close relationship with osteogenesis.
Osteoblasts (Calvarial cells) prepared in Experimental Example 1 and MC3T3-E1 cells (available from RIKEN Cell Bank, Japan) were collected in α-MEM supplemented with 10% FBS, followed by cell counting. The cells were dispensed into 24-well cultureware at a density of 2×10^4 cells/well. After culturing of the cells for 24 hours, the culture media were discarded and replaced with fresh media in which test compounds were diluted to a concentration of 1 μM (1 mL/well). In addition, the vehicle control group containing 0.1% DMSO was also treated. […] When the experiment was terminated, the supernatant was removed and the cells were washed three times with cold phosphate buffer at 4°. 0.2% Triton X-100 was added to the washed cells which were then subjected to three cycles of freezing at −70° and thawing at room temperature for the complete lysis of cells. The cell extracts were pooled and centrifuged to collect the cell supernatant which was used for the measurement of ALP activity and proteins. The protein concentration was measured using a BCA assay kit (manufactured by Sigma-Aldrich). For the measurement of ALP activity, p-nitrophenylphosphate was added to the cell supernatant which was then incubated at 37° for 30 minutes, and the reaction was terminated with the addition of 50 μL of 0.2N sodium hydroxide. The standard curve was plotted at the absorbance of 405 nm using p-nitrophenol as a standard material and then the absorbance of test materials thus reacted was measured to determine the production amount of p-nitrophenol.
The ALP activity was calculated by dividing the amount of p-nitrophenol produced from each test material by the protein amount and the reaction time. Therefore, the unit of ALP activity was given in terms of p-nitrophenol/μg protein/min. The results are given in Tables 28-1 and 28-2 where the ALP activity unit of each test material was given in terms of % change through the comparison between the individual test materials and the vehicle control group.

In series [3] the test system is Osteoblasts (Calvarial cells). Description: Cytotoxicity test (MTT). The conditions noted are these: 1 μM compound, 72 hours, in comparison with vehicle control.

SMILES strings stand for the structures. Where two headings read alike, the source gives them in different places.

Turning to `CNc1ccc([N+](=O)[O-])c(Nc2ccc(-n3ccnc3)cc2)n1` [Compound 86, 2-[4-(imidazol-1-yl)phenylamino]-6-(methylamino)-3-nitropyridine], the “Cell viability (%) Calvarial cell” value in series [1] is recorded as 111%. Further, the activity at 1 µM in series [2] stood at 144%.

On to `CC(C)CNc1ccc([N+](=O)[O-])c(Nc2ccc(N3CCOCC3)cc2)n1` [Compound 110, 2-(4-morpholinophenylamino)-6-(isobutylamino)-3-nitropyridine], for which the “Cell viability (%) Calvarial cell” value in series [1] is 112%. The activity at 1 µM in series [2] worked out at 143%.

Regarding `Nc1cccc(Nc2nc(NCc3ccncc3)ccc2[N+](=O)[O-])c1` [Compound 81, 2-[3-(amino)phenylamino]-6-[(4-pyridyl)methylamino]-3-nitropyridine], the “Cell viability (%) Calvarial cell” value in series [1] worked out at 100%. Also, the activity at 1 µM in series [2] stood at 123%.

As to `NC1CCN(c2ccc([N+](=O)[O-])c(Nc3ccc(-c4csc(C5CCCCC5)n4)cc3)n2)CC1` [Compound 161, 2-[4-(2-cyclohexylthiazol-4-yl)phenylamino]-6-(4-aminopiperidino)-3-nitropyridine], the “Cell viability (%) Calvarial cell” value in series [1] is 98%. For the same molecule, the activity at 1 µM in series [2] was 121%.

Turning to `O=[N+]([O-])c1ccc(N2CCC(O)CC2)nc1Nc1ccc(-n2ccnc2)cc1` [Compound 90, 2-[4-(imidazol-1-yl)phenylamino]-6-(4-hydroxypiperidino)-3-nitropyridine], in series [1], the “Cell viability (%) Calvarial cell” value stood at 106%. Besides, the activity at 1 µM in series [2] is 161%.

As for `CC(=O)c1cccc(Nc2nc(N3CCN(C)CC3)ccc2[N+](=O)[O-])c1` [Compound 105, 2-(3-acetylphenylamino)-6-(4-methylpiperazin-1-yl)-3-nitropyridine], in series [1], the “Cell viability (%) Calvarial cell” value came out at 90%. Moreover, the activity at 1 µM in series [2] came to 121%.

As to `Cc1nc(-c2ccc(Nc3nc(-n4ccnc4C(C)C)ccc3[N+](=O)[O-])cc2)cs1` [Compound 137, 2-[4-(2-methylthiazol-4-yl)phenylamino]-6-[(2-isopropyl)imidazol-1-yl]-3-nitropyridine], in series [1], the “Cell viability (%) Calvarial cell” value was determined as 92%. In addition, in series [2], the activity at 1 µM came to 122%.

With `CC(=O)c1cccc(Nc2nc(N3CCOCC3)ccc2[N+](=O)[O-])c1` [Compound 107, 2-(3-acetylphenylamino)-6-morpholino-3-nitropyridine], the “Cell viability (%) Calvarial cell” value in series [1] came to 97%. The activity at 1 µM in series [2] amounted to 121%.

For the molecule `CC(C)(C)Nc1ccc([N+](=O)[O-])c(Nc2ccc(N)cc2)n1` [Compound 60, 2-[4-(amino)phenylamino]-6-(t-butylamino)-3-nitropyridine], the “Cell viability (%) Calvarial cell” value in series [1] is given as 119%. Besides, in series [2], the activity at 1 µM was determined as 131%.

On to `CCN(CCO)c1ccc([N+](=O)[O-])c(Nc2ccc(C#N)cc2)n1` [Compound 51, 2-(4-cyanophenylamino)-6-[(N-ethyl-2-hydroxy)ethylamino]-3-nitropyridine], for which the “ALP activity (1 μM, % of Control) Calvarial cell” value in series [2] was 116 % of Control. Further, the “Cell viability (%) Calvarial cell” value in series [3] is 100%.

On to `CC1=NCCN1c1ccc([N+](=O)[O-])c(Nc2ccc(N3CCC(N)CC3)c(F)c2)n1` [Compound 252, 2-{[3-fluoro-4-(4-aminopiperidino)]phenylamino}-6-[(2-methyl-4,5-dihydro)imidazol-1-yl]-3-nitropyridine], for which the “ALP activity (1 μM, % of Control) Calvarial cell” value in series [2] is given as 112 % of Control. Further, the “Cell viability (%) Calvarial cell” value in series [3] is recorded as 103%.

For the molecule `CNc1ccc([N+](=O)[O-])c(Nc2ccc(N3CCSCC3)c(F)c2)n1` [Compound 203, 2-[(3-fluoro-4-thiomorpholino)phenylamino]-6-(methylamino)-3-nitropyridine], the “ALP activity (1 μM, % of Control) Calvarial cell” value in series [2] was 154 % of Control. For the same molecule, in series [3], the “Cell viability (%) Calvarial cell” value came out at 97%.

Take `CC1=NCCN1c1ccc([N+](=O)[O-])c(Nc2ccc(C)cc2)n1` [Compound 6, 2-(4-methylphenylamino)-6-[(2-methyl-4,5-dihydro)imidazol-1-yl]-3-nitropyridine]: the “ALP activity (1 μM, % of Control) Calvarial cell” value in series [2] was 116 % of Control. The “Cell viability (%) Calvarial cell” value in series [3] amounted to 94%.
